# Data from US9850247B2 (Almac Discovery Limited, priority 2013, dated 2017).
# Legend:
# [1] = test system: phospho-cdc2 (Tyr15) in HT-29 cells; experiment: Effect on Cdc2 phosphorylation at Tyr15, Cell-Based ELISA Base Kit (Method 3); conditions: Homo sapiens, HT-29, 8 h, eight hours incubation, normalized to total cdc2, read-out: HT29 pCDC2 method 3
# Procedure: Method 3: Determining the Effect of Compounds on the Cdc2 phosphorylation at Tyr15, using a Cell-Based ELISA Base Kit (R&D Systems, KCB001)
# The colorectal cancer cell line, HT-29 was purchased from the ATCC and maintained in McCoy's 5 A medium (Gibco®, Life technologies) supplemented with 10% Foetal Calf Serum (FCS).
# The cells were trypsinised and counted, 100 μL of 8000 cells was seeded into each well of a clear-bottom black 96-well microplate and incubated overnight to allow adherence to the surface, at 37° C. and 5% CO2 in a cell culture incubator.
# Test compounds were formulated in DMSO and diluted in cell culture medium supplemented with FCS. Grow medium was removed from cells and medium containing compounds dilutions was added to each well. The plate was returned to the incubator for an additional eight hours of incubation at 37° C. and 5% CO2.
# Post incubation cells were fixed by replacing the compounds supplemented medium with 100 μL of 4% formaldehyde in 1× phosphate buffered saline (PBS), for 20 minutes at room temperature. Formaldehyde solution was removed and cells were washed three times with PBS. The Cell-Based ELISA assay (R&D Systems) was carried out immediately after cell fixation or the plate was sealed and fixed cells were stored in PBS at 4° C. until required (no more than two weeks).
# To continue the assay, PBS was removed and cells were washed 3 times for 5 minutes with 200 μL of 1× wash buffer. Each wash step was carried out with gentle shaking. Following washes, 100 μL of 0.6% H2O2 in 1× wash buffer (quenching buffer) was added, plate was sealed and incubated for 20 minutes at room temperature. Post incubation cells were washes 3 times for 5 minutes with 200 μL of 1× wash buffer, with gentle shaking. 100 μL of blocking buffer was added to each well, the plate was re-sealed and incubated at room temperature for 1 h.
# After blocking, cells were washed as described above. A primary antibody mixture was prepared by mixing the two primary antibodies, a rabbit monoclonal antibody for phospho-cdc2 (Tyr15) (Cell Signaling, #4539) and mouse monoclonal antibody for total cdc2 p34 (Santa Cruz Biotechnology, sc-54), diluted 1:25 and 1:50 in blocking buffer, respectively. 60 μL of primary antibody mixture was added to each well, the plate was sealed and incubated overnight at 4° C.
# The primary antibodies were removed and cells were washed as previously described. 100 μL of secondary antibody mixture, containing horseradish-peroxidase (HRP)-conjugated goat anti-rabbit IgG and alkaline phosphatase (AP)-conjugated goat anti-mouse IgG, diluted 1:100 in blocking buffer, was added to each test well. The plate was re-sealed and incubated for 2 hours at room temperature.
# The secondary antibodies were removed and cells washed 2 times with wash buffer, followed by 2 washes with PBS. Each wash step was carried out for 5 minutes with gentle shaking. PBS was removed and 75 μL of fluorogenic substrate for HRP (substrate F1) added to each well. The plate was sealed and incubated for 1 h at room temperature, in the dark. 75 μL of fluorogenic substrate for AP (substrate F2) was added directly to each well, plate re-sealed and incubated for additional 40 minutes at room temperature, protected from direct light.
# Following incubation fluorescence from each well was read at 600 nm (signal from substrate 1, phosphorylated protein) and then at 450 nm (signal from substrate 2, total protein).
# The percentage of phospho-cdc2 was calculated compared to DMSO control, normalized to the total cdc2 and plotted versus the concentration of inhibitor, using GraphPad Prism. Data was fitted using a non-linear regression analysis and EC50 values generated.
# [2] = CLint estimates using human liver microsomes (Method 4); format: in vitro ADME; conditions: pH 7.4, 1 μM compound, read-out: Mics - CLint (HLM CLint)
# In short: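 Depletion measured by LC/MS/MS in MRM mode over 2–50 min after starting reactions with 1 mM NADPH. Incubations used 0.5 mg/mL human liver microsomal protein, 1 μM compound, 0.1% DMSO, pH 7.4 phosphate buffer, 37 °C. ln peak area plotted against time; the gradient gave t½ and intrinsic clearance.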
# Wee-1 kinase = molecular target: T1, Wee-1 kinase (Homo sapiens, UniProt P30291); experiment: Measurement of Wee-1 kinase activity (ADP-Glo luminescent kit); format: biochemical
# T1 construct: purchased Invitrogen PV3817
# T1 sequence (P30291 whole entry): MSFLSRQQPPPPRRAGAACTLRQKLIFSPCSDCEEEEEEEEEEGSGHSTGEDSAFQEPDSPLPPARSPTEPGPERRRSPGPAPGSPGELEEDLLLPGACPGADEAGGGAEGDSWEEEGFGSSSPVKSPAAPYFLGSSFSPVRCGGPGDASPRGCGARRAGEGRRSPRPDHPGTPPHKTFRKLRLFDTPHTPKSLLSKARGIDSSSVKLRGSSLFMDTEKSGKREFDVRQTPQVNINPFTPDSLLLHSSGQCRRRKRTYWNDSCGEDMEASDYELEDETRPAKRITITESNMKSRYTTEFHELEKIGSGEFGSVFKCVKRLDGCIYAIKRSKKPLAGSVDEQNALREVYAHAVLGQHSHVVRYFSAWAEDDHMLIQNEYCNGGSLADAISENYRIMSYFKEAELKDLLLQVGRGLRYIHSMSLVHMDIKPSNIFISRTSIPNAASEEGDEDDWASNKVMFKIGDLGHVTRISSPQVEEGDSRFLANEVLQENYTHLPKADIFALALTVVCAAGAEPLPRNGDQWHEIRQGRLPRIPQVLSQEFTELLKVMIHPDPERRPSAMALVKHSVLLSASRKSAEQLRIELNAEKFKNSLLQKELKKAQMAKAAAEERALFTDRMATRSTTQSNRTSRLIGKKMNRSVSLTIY
# In short: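 ADP-Glo luminescence reads ADP made over 1 h at RT, after an aliquot of 30 μM ATP and 2.0 μg/mL poly(Lys,Tyr 4:1) substrate. Before that, the kinase sat 30 min with inhibitor in Tris-HCl/MgCl2 buffer with BSA and DTT. IC50 came from regression of percent inhibition.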
SMILES,EC50 [1],microsomal CLint at 1 μM [2],IC50 (Wee-1 kinase)
"CN(C)Cc1cc(Nc2ncc3c(n2)N(C)CN(c2c(Cl)cccc2Cl)C3=O)ccc1N1CCS(=O)(=O)CC1 [Example 149, 3-(2,6-dichlorophenyl)-7-((3-((dimethylamino)methyl)-4-(1,1-dioxidothiomorpholino)phenyl)amino)-1-methyl-2,3-dihydropyrimido[4,5-d]pyrimidin-4(1H)-one]",100 to 1000 nM,≤ 15 µL/min/mg,≤ 10 nM
"CCN1CCN(c2ccc(Nc3ncc4c(n3)N(C)CN(c3c(Cl)cccc3Cl)C4=O)cc2CO)CC1 [Example 72, 3-(2,6-dichlorophenyl)-7-((4-(4-ethylpiperazin-1-yl)-3-(hydroxymethyl)phenyl)amino)-1-methyl-2,3-dihydropyrimido[4,5-d]pyrimidin-4(1H)-one]",100 to 1000 nM,≤ 15 µL/min/mg,≤ 10 nM
"CNCc1cccc(N2CN(c3c(Cl)cccc3Cl)C(=O)c3cnc(Nc4ccc(N5CCOCC5)cc4)nc32)c1 [Example 168, 3-(2,6-dichlorophenyl)-1-(3-((methylamino)methyl)phenyl)-7-((4-morpholinophenyl)amino)-2,3-dihydropyrimido[4,5-d]pyrimidin-4(1H)-one]",100 to 1000 nM,≤ 15 µL/min/mg,≤ 10 nM
"CC(=O)N1CCN(c2ccc(Nc3ncc4c(n3)N(C)CN(c3c(Cl)cccc3Cl)C4=O)cc2CN(C)C)CC1 [Example 144, 7-((4-(4-acetylpiperazin-1-yl)-3-((dimethylamino)methyl)phenyl)amino)-3-(2,6-dichlorophenyl)-1-methyl-2,3-dihydropyrimido[4,5-d]pyrimidin-4(1H)-one]",100 to 1000 nM,15 to 50 µL/min/mg,≤ 10 nM
"CN(C)Cc1cc(Nc2ncc3c(n2)N(C)CN(c2c(Cl)cccc2Cl)C3=O)ccc1N1CCC(F)(F)CC1 [Example 150, 3-(2,6-dichlorophenyl)-7-((4-(4,4-difluoropiperidin-1-yl)-3-((dimethylamino)methyl)phenyl)amino)-1-methyl-2,3-dihydropyrimido[4,5-d]pyrimidin-4(1H)-one]",100 to 1000 nM,≥ 50 µL/min/mg,10 to 100 nM
"COC[C@H]1CN(c2ccc(Nc3ncc4c(n3)N(C)CN(c3c(Cl)cccc3Cl)C4=O)cc2C(O)C(F)F)CCN1 (single isomer, unassigned) [Example 162]",100 to 1000 nM,15 to 50 µL/min/mg,≤ 10 nM
"CN(C)CC(=O)N1CCN(c2ccc(Nc3ncc4c(n3)N(C)CN(c3c(Cl)cccc3Cl)C4=O)cc2)CC1 [Example 123, 3-(2,6-dichlorophenyl)-7-((4-(4-(2-(dimethylamino)acetyl)piperazin-1-yl)phenyl)amino)-1-methyl-2,3-dihydropyrimido[4,5-d]pyrimidin-4(1H)-one]",100 to 1000 nM,≥ 50 µL/min/mg,≤ 10 nM
"CCN1CN(c2c(Cl)cccc2Cl)C(=O)c2cnc(Nc3ccc(N4C[C@@H](C)N[C@@H](C)C4)c(CO)c3)nc21 [Example 170, 3-(2,6-dichlorophenyl)-7-((4-((3S,5R)-3,5-dimethylpiperazin-1-yl)-3-(hydroxymethyl)phenyl)amino)-1-ethyl-2,3-dihydropyrimido[4,5-d]pyrimidin-4(1H)-one]",100 to 1000 nM,15 to 50 µL/min/mg,≤ 10 nM
"CN1CN(c2c(Cl)cccc2Cl)C(=O)c2cnc(Nc3ccc(N4CC5CCC(C4)N5C)cc3)nc21 [Example 88, 3-(2,6-dichlorophenyl)-1-methyl-7-((4-(8-methyl-3,8-diazabicyclo[3.2.1]octan-3-yl)phenyl)amino)-2,3-dihydropyrimido[4,5-d]pyrimidin-4(1H)-one]",100 to 1000 nM,15 to 50 µL/min/mg,≤ 10 nM
"CN1CCN(c2ccc(Nc3ncc4c(n3)N(C)CN(c3c(Cl)cccc3Cl)C4=O)cc2)CC1 [Example 117, 3-(2,6-dichlorophenyl)-1-methyl-7-((4-(4-methylpiperazin-1-yl)phenyl)amino)-2,3-dihydropyrimido[4,5-d]pyrimidin-4(1H)-one]",100 to 1000 nM,15 to 50 µL/min/mg,10 to 100 nM
"CNCc1cc(Nc2ncc3c(n2)N(C)CN(c2c(Cl)cccc2Cl)C3=O)ccc1N1CCC(F)(F)CC1 [Example 147, 3-(2,6-dichlorophenyl)-7-((4-(4,4-difluoropiperidin-1-yl)-3-((methylamino)methyl)phenyl)amino)-1-methyl-2,3-dihydropyrimido[4,5-d]pyrimidin-4(1H)-one]",100 to 1000 nM,≤ 15 µL/min/mg,≤ 10 nM
"CN1Cc2cc(Nc3ncc4c(n3)N(C)CN(c3c(Cl)cccc3Cl)C4=O)ccc2C2(CC2)C1 [Example 76, 3-(2,6-dichlorophenyl)-1-methyl-7-((2′-methyl-2′,3′-dihydro-1′H-spiro[cyclopropane-1,4′-isoquinolin]-7′-yl)amino)-2,3-dihydropyrimido[4,5-d]pyrimidin-4(1H)-one]",100 to 1000 nM,≥ 50 µL/min/mg,≤ 10 nM
"COC[C@H]1CN(c2ccc(Nc3ncc4c(n3)N(C)CN(c3c(Cl)cccc3Cl)C4=O)cc2CO)CCN1 [Example 135, (R)-3-(2,6-dichlorophenyl)-7-((3-(hydroxymethyl)-4-(3-(methoxymethyl)piperazin-1-yl)phenyl)amino)-1-methyl-2,3-dihydropyrimido[4,5-d]pyrimidin-4(1H)-one]",100 to 1000 nM,≤ 15 µL/min/mg,≤ 10 nM
"CNCc1cc(Nc2ncc3c(n2)N(C)CN(c2c(Cl)cccc2Cl)C3=O)ccc1N1CCN(C(C)=O)CC1 [Example 143, 7-((4-(4-acetylpiperazin-1-yl)-3-((methylamino)methyl)phenyl)amino)-3-(2,6-dichlorophenyl)-1-methyl-2,3-dihydropyrimido[4,5-d]pyrimidin-4(1H)-one]",≥ 1000 nM,≤ 15 µL/min/mg,≤ 10 nM
"CN1CN(c2c(Cl)cccc2Cl)C(=O)c2cnc(Nc3ccc(N4CCNCC4)c(CNCC(F)(F)F)c3)nc21 [Example 141, 3-(2,6-dichlorophenyl)-1-methyl-7-((4-(piperazin-1-yl)-3-(((2,2,2-trifluoroethyl)amino)methyl)phenyl)amino)-2,3-dihydropyrimido[4,5-d]pyrimidin-4(1H)-one]",≥ 1000 nM,≤ 15 µL/min/mg,≤ 10 nM
"C[C@@H]1CN(c2ccc(Nc3ncc4c(n3)N(C)CN(c3c(Cl)cccc3Cl)C4=O)cc2CO)C[C@H](C)N1 [Example 158, 3-(2,6-dichlorophenyl)-7-((4-((3S,5R)-3,5-dimethylpiperazin-1-yl)-3-(hydroxymethyl)phenyl)amino)-1-methyl-2,3-dihydropyrimido[4,5-d]pyrimidin-4(1H)-one]",100 to 1000 nM,≤ 15 µL/min/mg,≤ 10 nM
"Cc1cccc(Cl)c1N1CN(C)c2nc(Nc3ccc(N4CC5CCC(C4)N5C)c(CO)c3)ncc2C1=O [Example 114, 3-(2-chloro-6-methylphenyl)-7-((3-(hydroxymethyl)-4-(8-methyl-3,8-diazabicyclo[3.2.1]octan-3-yl)phenyl)amino)-1-methyl-2,3-dihydropyrimido[4,5-d]pyrimidin-4(1H)-one]",100 to 1000 nM,≤ 15 µL/min/mg,≤ 10 nM
